# Assay results as given in patent publication US8785439B2, “2,5,7-substituted oxazolopyrimidine derivatives” (Sanofi, priority 2010, dated 2014).
# Biological target: T1, human Edg-1 receptor (Homo sapiens, UniProt P21453)
# T1 construct: FLAG (N); expressed in transfected cells; membrane preparation
# Assay: GTP-γ-S assay using human Edg-1 receptors (SPA, CHO Flp-In cell membrane preparation)
# Assay type: biochemical
# Settings: test compound at 10 μM; high control 10 μM S1P regarded as 100% activation; background-corrected; triplicate
# Excerpt: Determination of the Pharmacological Activity A) GTP-γ-S Assay Using Human Edg-1 Receptors
# In order to determine the Edg-1 receptor activation by the compounds of the invention, a GTP-γ-S (guanosine 5′-[γ-thio]triphosphate) assay for G-protein coupled receptor binding based on the scintillation proximity assay principle was used, employing a cell membrane preparation from a CHO Flp-In cell line which constitutively overexpresses the human Edg-1 receptor.
# The Flp-In™ expression system (Invitrogen, cat. no. K6010-01) allows the generation of stable mammalian cell lines into which the gene of interest has been integrated through homologous recombination at a specific genomic location called Flp Recombination Target (FRT) site by means of a Flp recombinase encoded by the pOG44 expression plasmid. The integration of the pcDNA5/FRT expression construct into the Flp-In host cell line genome results in the transcription of the gene of interest. The stably transfected cells become hygromycin-resistant.
# One day prior to transfection, 200 000 Flp-In-CHO cells were seeded in Ham F-12 medium (Invitrogen, cat. no. 31765) supplemented with 10% fetal calf serum (FCS; Perbio Science, cat. no. SH30068.03) in a 6-well plate and incubated at 37° C./5% CO2 overnight. Using the FuGENE® 6 transfection reagent (Roche, cat. no. 11988387001), cells were cotransfected with the Flp recombinase expression plasmid pOG44 and a modified plasmid additionally containing the edg-1 gene (accession no. NM_001400) termed as pcDNA5-FRT-TO_nFLAG_DEST-EDG-1 with a 9:1 ratio. To obtain the modified pcDNA5-FRT-TO_nFLAG_DEST plasmid, the Invitrogen plasmid pcDNA5/FRT/TO (Invitrogen, cat. no. V6520-20) was adapted to the Gateway® (Invitrogen) cloning system by inserting a Gateway cassette containing attR recombination sites flanking a ccdB gene and a chloramphenicol-resistance gene (Gateway conversion system, Invitrogen, cat. no. 11828-029). In addition a FLAG tag epitope was added before the 5′ att recombination site to allow recombinant expression of N-terminally FLAG-tagged proteins.
# For the transfection of one well, 1.08 μg of pOG44 and 0.12 μg of pcDNA5-FRT-TO_nFLAG_DEST-EDG-1 were mixed with 100 μl of serum-free Ham F-12 medium containing 6 μl of FuGENE® 6 transfection reagent. After 20 min of incubation, the transfection reagent/DNA complex was distributed dropwise on the cells. The cells were incubated for 24 h at 37° C. Then the cells from 3 wells each were transferred to a T75 flask (Greiner Cellstar®, cat. no. 658175) containing Ham F-12 medium supplemented with 10% of FCS but without antibiotic and were incubated another 24 h. 48 h after transfection, the medium was replaced by selection medium (Ham F-12 supplemented with 10% of FCS and 300 μg/ml of hygromycin B (Invitrogen, cat. no. 10687-010)). The medium was exchanged every 2 to 3 days until a resistant population of cells had grown. […] After 2 weeks of selection, the cells were transferred into T175 flasks (Greiner Cellstar®, cat. no. 660175) and cultivated for batch production. Cells were harvested from the culture flasks by short treatment (2 to 5 min) with Accutase (PAA, cat. no. L11-007), resuspended in selection medium (see above) and centrifuged at 200×g for 5 min. Cells were resuspended in a mixture of 90% of FCS and 10% of dimethylsulfoxide and stored frozen in liquid nitrogen.
# A membrane preparation was obtained by standard methods from the afore-described CHO Flp-In cell line constitutively overexpressing the human Edg-1 receptor. Briefly, the cryopreserved cells were taken in culture and grown until confluency in T175 cell culture flasks (Becton Dickinson, cat. no. 35 5001). […]
# T1 sequence (P21453 whole entry): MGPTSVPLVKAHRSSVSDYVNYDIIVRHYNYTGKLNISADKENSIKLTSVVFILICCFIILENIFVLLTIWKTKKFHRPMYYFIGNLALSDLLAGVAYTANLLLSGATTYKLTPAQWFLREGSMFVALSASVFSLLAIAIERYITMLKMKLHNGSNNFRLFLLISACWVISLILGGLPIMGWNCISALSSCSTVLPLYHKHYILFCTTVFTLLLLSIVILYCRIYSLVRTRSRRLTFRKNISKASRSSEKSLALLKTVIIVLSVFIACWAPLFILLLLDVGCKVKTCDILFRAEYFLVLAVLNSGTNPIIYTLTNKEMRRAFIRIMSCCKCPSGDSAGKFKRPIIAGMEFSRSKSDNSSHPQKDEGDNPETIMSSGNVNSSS
row,% Activation (Edg-1 receptor activation in percent of the activation by 10 μM S1P),Molecule
1,108%,"5-(2-fluoro-phenoxy)-2-(1-oxy-pyridin-3-yl)-7-propoxy-oxazolo[5,4-d]pyrimidine [Example 109]"
2,96%,"CCCOc1nc(Oc2ccc(=O)n(C)n2)nc2oc(-c3cc(F)ccc3Cl)nc12 [Example 114, 6-[2-(2-chloro-5-fluoro-phenyl)-7-propoxy-oxazolo[5,4-d]pyrimidin-5-yloxy]-2-methyl-2H-oyridazin-3-one]"

# Same assay, conditions: test compound at 10 μM; high control 10 μM S1P regarded as 100% activation; background-corrected; triplicate; read-out: % Activation (Edg-1 receptor activation in percent of the activation by 10 μM S1P)
row,Molecule,activation at 10 µM
1,"CCCOc1nc(OC2CCOCC2)nc2oc(-c3cccc(C)c3)nc12 [Example 71, 7-propoxy-5-(tetrahydro-pyran-4-yloxy)-2-(3-methyl-phenyl)-oxazolo[5,4-d]pyrimidine]",102%
2,"CCCOc1nc(Oc2cccc(SC(F)(F)F)c2)nc2oc(-c3cccc(F)c3)nc12 [Example 69, 2-(3-fluoro-phenyl)-7-propoxy-5-(3-trifluoromethylsulfanyl-phenoxy)-oxazolo[5,4-d]pyrimidine]",41%
3,"CCCOc1nc(SC2CCS(=O)(=O)C2)nc2oc(-c3cccc(C)c3)nc12 (centres unmarked) [Example 27, 5-(1,1-dioxo-tetrahydro-1lambda6-thiophen-3-ylsulfanyl)-7-propoxy-2-(3-methyl-phenyl)-oxazolo[5,4-d]pyrimidine]",93%
4,"CCOc1nc(Oc2ccccc2F)nc2oc(-c3ccc[n+]([O-])c3)nc12 [Example 7, 7-Ethoxy-5-(2-fluoro-phenoxy)-2-(1-oxy-pyridin-3-yl)-oxazolo[5,4-d]pyrimidine]",116%
5,"CCCOc1nc(Sc2nc(C)cs2)nc2oc(-c3cccc(C)c3)nc12 [Example 55, 5-(4-methyl-thiazol-2-ylsulfanyl)-7-propoxy-2-(3-methyl-phenyl)-oxazolo[5,4-d]pyrimidine]",81%
6,"CCOc1nc(Oc2ccccc2F)nc2oc(-c3cc(F)ccc3Cl)nc12 [Example 30, 2-(2-chloro-5-fluoro-phenyl)-7-ethoxy-5-(2-fluoro-phenoxy)-oxazolo[5,4-d]pyrimidine]",134%
7,"CCCOc1nc(Oc2ccccc2F)nc2oc(-c3cc(C)c(OC)c(C)c3)nc12 [Example 5, 5-(2-Fluoro-phenoxy)-2-(4-methoxy-3,5-dimethyl-phenyl)-7-propoxy-oxazolo[5,4-d]pyrimidine]",111%
8,"Cc1cccc(-c2nc3c(OCC4CC4)nc(SC4CCS(=O)(=O)C4)nc3o2)c1 (centres unmarked) [Example 28, 7-cyclopropylmethoxy-5-(1,1-dioxo-tetrahydro-1lambda6-thiophen-3-ylsulfanyl)-2-(3-methyl-phenyl)-oxazolo[5,4-d]pyrimidine]",69%
9,"CCCOc1nc(Oc2ccc(=O)n(C)n2)nc2oc(-c3cccc(C)c3)nc12 [Example 56, 2-methyl-6-(7-propoxy-2-(3-methyl-phenyl)-oxazolo[5,4-d]pyrimidin-5-yloxy)-2H-pyridazin-3-one]",97%
10,"CCCOc1nc(Oc2ccccc2F)nc2oc(-c3cccc(O)c3)nc12 [Example 42, 3-[5-(2-fluoro-phenoxy)-7-propoxy-oxazolo[5,4-d]pyrimidin-2-yl]-phenol]",130%
11,"CCCOc1nc(Oc2cccc(S(N)(=O)=O)c2)nc2oc(-c3cccc(C)c3)nc12 [Example 20, 3-(7-propoxy-2-(3-methyl-phenyl)-oxazolo[5,4-d]pyrimidin-5-yloxy)-benzenesulfonamide]",83%
12,"CCCOc1nc(Oc2cccnc2)nc2oc(-c3cccc(C)c3)nc12 [Example 77, 7-propoxy-5-(pyridin-3-yloxy)-2-(3-methyl-phenyl)-oxazolo[5,4-d]pyrimidine]",111%
13,"CCOc1nc(Sc2ccc(F)c(F)c2)nc2oc(-c3cccc(C)c3)nc12 [Example 12, 5-(3,4-difluoro-phenylsulfanyl)-7-ethoxy-2-(3-methyl-phenyl)-oxazolo[5,4-d]pyrimidine]",84%
14,"CCCOc1nc(Oc2ccccc2F)nc2oc(-c3cccc(OC)c3)nc12 [Example 40, 5-(2-fluoro-phenoxy)-2-(3-methoxy-phenyl)-7-propoxy-oxazolo[5,4-d]pyrimidine]",120%
15,"Cc1cccc(-c2nc3c(OCC4CC4)nc(Oc4ccccc4F)nc3o2)c1 [Example 29, 7-cyclopropylmethoxy-5-(2-fluoro-phenoxy)-2-(3-methyl-phenyl)-oxazolo[5,4-d]pyrimidine]",109%
16,"CCCOc1nc(OC2COC2)nc2oc(-c3cccc(C)c3)nc12 [Example 38, 5-(oxetan-3-yloxy)-7-propoxy-2-(3-methyl-phenyl)-oxazolo[5,4-d]pyrimidine]",70%
17,"CCCOc1nc(O[C@H]2CCCC[C@@H]2F)nc2oc(-c3cccc(F)c3)nc12 [Example 48, 5-((1S,2S)-2-fluoro-cyclohexyloxy)-2-(3-fluoro-phenyl)-7-propoxy-oxazolo[5,4-d]pyrimidine]",105%

# Results, then the molecule that gave them:
row,activation at 10 µM,Molecule
1,108%,"CCCOc1nc(Sc2cc(F)ccc2C)nc2oc(-c3cc(F)ccc3Cl)nc12 [Example 153, 2-(2-chloro-5-fluoro-phenyl)-5-(5-fluoro-2-methyl-phenylsulfanyl)-7-propoxy-oxazolo[5,4-d]pyrimidine]"
2,50%,"CCCOc1nc(Oc2c(C)cc(C)cc2C)nc2oc(-c3cccc(C)c3)nc12 [Example 142, 7-propoxy-2-(3-methyl-phenyl)-5-(2,4,6-trimethyl-phenoxy)-oxazolo[5,4-d]pyrimidine]"
3,91%,"CCCOc1nc(Oc2ccc(OC)c(OC)c2)nc2oc(-c3cccc(C)c3)nc12 [Example 136, 5-(3,4-dimethoxy-phenoxy)-7-propoxy-2-(3-methyl-phenyl)-oxazolo[5,4-d]pyrimidine]"
4,113%,"CCCOc1nc(Oc2cccc(Cl)c2)nc2oc(-c3cccc(C)c3)nc12 [Example 121, 5-(3-chloro-phenoxy)-7-propoxy-2-(3-methyl-phenyl)-oxazolo[5,4-d]pyrimidine]"
5,105%,"CCCOc1nc(Oc2ccccc2C#N)nc2oc(-c3cccc(C)c3)nc12 [Example 128, 2-(7-propoxy-2-(3-methyl-phenyl)-oxazolo[5,4-d]pyrimidin-5-yloxy)-benzonitrile]"
6,91%,"CCCOc1nc(Oc2ccc(F)cc2OC)nc2oc(-c3cccc(C)c3)nc12 [Example 99, 5-(4-fluoro-2-methoxy-phenoxy)-7-propoxy-2-(3-methyl-phenyl)-oxazolo[5,4-d]pyrimidine]"
7,64%,"CCCOc1nc(Oc2cc(F)ccc2C)nc2oc(-c3cc(F)ccc3Cl)nc12 [Example 79, 2-(2-chloro-5-fluoro-phenyl)-5-(5-fluoro-2-methyl-phenoxy)-7-propoxy-oxazolo[5,4-d]pyrimidine]"
8,98%,"CCCOc1nc(Oc2cccc(OC)c2)nc2oc(-c3cccc(C)c3)nc12 [Example 118, 5-(3-methoxy-phenoxy)-7-propoxy-2-(3-methyl-phenyl)-oxazolo[5,4-d]pyrimidine]"
9,67%,"CCCOc1nc(OC2CCC(C)CC2)nc2oc(-c3cc(F)ccc3Cl)nc12 (centres unmarked) [Example 85, 2-(2-chloro-5-fluoro-phenyl)-5-(4-methyl-cyclohexyloxy)-7-propoxy-oxazolo[5,4-d]pyrimidine]"
10,46%,"CCCOc1nc(OCC2(C)COC2)nc2oc(-c3cc(F)ccc3Cl)nc12 [Example 152, 2-(2-chloro-5-fluoro-phenyl)-5-(3-methyl-oxetan-3-ylmethoxy)-7-propoxy-oxazolo[5,4-d]pyrimidine]"
